Reference: patent US6455577B2, “Flavanone derivatives and composition for preventing or treating blood lipid level-related diseases comprising same” (Korea Research Institute of Bioscience and Biotechnology, priority 2000, dated 2002)

Key:
Sprague-Dawley rats = test: Plasma total cholesterol, HDL-cholesterol and triglyceride levels in rats fed high-cholesterol diet; type: in vivo, rat
Text: (Step 1) Administration of NG5006 to rats
30 four-week-old white Sprague-Dawley rats (Korea Institute of Science and Technology, Korea), each weighing about 90 to 120 g, were evenly divided into three dietary groups by a randomized block design. The rats of the three groups were fed with three different high-cholesterol diets, i.e., AIN-76 laboratory animal diet(ICN Biochemicals, Cleveland, Ohio, U.S.A.) containing 1% cholesterol(Control group), 1% cholesterol plus 0.02% naringenin and 1% cholesterol plus 0.036% NG5006, respectively.
The rats were allowed to feed freely on the specified diet together with water for six weeks, the ingestion amount was recorded daily and the rats were weighed every 7 days, and then the record was analyzed. […] (Step 2) Determination of total cholesterol, HDL-cholesterol and triglyceride contents in blood
The effects of administering naringenin or NG5006 to rats on the plasma cholesterol and triglyceride contents were determined as follows.
Blood samples were taken from the rats of the three dietary groups and total cholesterol level was determined by using Sigma Diagnostic Kit Cat. No. C0534(Sigma Chemical Co., U.S.A.). HDL fractions were separated therefrom by using HDL-cholesterol reagent(Sigma Chemical Co., Cat. No. 352-1) and HDL-cholesterol level was determined by using Sigma Diagnostic Kit Cat. No. C9908(Sigma Chemical Co., U.S.A.). Triglyceride level was determined by using Sigma Diagnostic Kit Cat. No. 336-10(Sigma Chemical Co., U.S.A.).

[1] = test system: New Zealand White rabbits; test: Fatty streak in the main artery of cholesterol-fed rabbits; type: in vivo, rabbit
Procedure: 22 three-month-old New Zealand White rabbits(Yeonam Horticulture and Animal Husbandry College, Korea) each weighing about 2.0 to 2.3 kg were bred under a condition of temperature 20±2° C., relative humidity 55±10%, and photoperiod 12L/12D. The rabbits were divided two groups of 6 rabbits and a group of 10 rabbits, and the rats of three groups were fed with three different diets, i.e., RC4 diet(Oriental Yeast Co., Japan) containing 1% cholesterol(Control group); 1% cholesterol plus 1 mg/kg Lovastatin® (Merck, U.S.A.)(Comparative group); and 1% cholesterol plus 0.1% NG5006, respectively. RC4 diet comprises 7.6% moisture, 22.8% crude protein, 2.8% crude fat, 8.8% crude ash, 14.4% crude cellulose and 43.6% soluble nitrogen-free substances. The rabbits were bred for 8 weeks while being allowed free access to the diets and water.
The rabbits bred in Step 1 were sacrificed and their chest were incised. The main artery was cut out therefrom in a length of about 5 cm downward from the site 1 cm above the aortic valve and the fat surrounding the main artery was removed. The main artery was incised in the middle along the longitudinal axis and fixed in 10% neutral buffered formalin for 24 hours, and then, pinned to a dish. The moist artery was photographed and, then, staining of fatty streak was carried out in accordance with the method of Esper, E., et al. (J. Lab. Clin. Med., 121, 103-110(1993)) as follows.
A part of the incised main artery was washed three times by 2 min. with anhydrous propylene glycol and stained for 30 min. with a saturated solution of Oil Red O(ORO, Sigma Co.) dissolved in propylene glycol. Thereafter, the artery was washed twice by 3 min. with 85% propylene glycol to remove remaining staining solution and, then washed with physical saline. The artery was photographed and the photograph was traced. The area of stained legion(fatty streak legion) was determined with an image analyzer(LEICA, Q-600, Germany) and its proportion(%) to the total arterial area was calculated. The result is shown in Table V. The results were tested by student t-test by using Microsoft excel(version 7.0) program.

ICR mice = test: Toxicity of orally administered NG5006 in mice; type: in vivo, mouse; settings: single oral dose 1, 2 and 4 g/kg
Procedure: 4 week-old, specific pathogen-free ICR female mice(12 heads) and male mice(12 heads) were bred under a condition of temperature 22±3° C., moisture 55±10% and photoperiod 12L/12D. Fodder(Cheiljedang Co., mouse and rat fodder) and water were sterilized and fed to the mice.
NG5006 was dissolved in 0.5% Tween 80 to a concentration of 100 mg/ml. The solution thus obtained was orally administered to the mice in amounts of 0.2 ml(1 g/kg), 0.4 ml(2 g/kg) and 0.8 ml(4g/kg) per 20 g of mouse body weight, respectively. […] The weight changes of the mice were recorded every day to examine the effect of NG5006. Further, on the 7th day, the mice were sacrificed and the internal organs were visually examined.

[2] = plasma, rats on 1% cholesterol diet plus 0.02% naringenin or 0.036% NG5006, six weeks
[3] = rats, 1% cholesterol diet, six weeks

CCCCCCCCCCCCCCCCOc1cc(O)c2c(c1)OC(c1ccc(O)cc1)CC2=O (stereo not drawn) [NG5006, Naringenin 7-O-cetyl Ether]
HDL-C (HDL-cholesterol) (Sprague-Dawley rats; [2]): 36.7 ± 1.3 mg/dL
HDL-C/Total-C (Sprague-Dawley rats; [2]): 20.4 ± 0.7%
TG (triglyceride) (Sprague-Dawley rats; [2]): 118.4 ± 3.4 mg/dL
Total-C (total cholesterol) (Sprague-Dawley rats; [2]): 183.5 ± 6.4 mg/dL
AI: Atherosclerosis Index (AI = (Total-C − HDL-C)/HDL-C) (Sprague-Dawley rats; rats on 1% cholesterol diet plus 0.02% naringenin or 0.036% NG5006, six weeks): 4.0 ± 0.2
lowering blood lipid level, comparison in words (Sprague-Dawley rats; [3]): superior to naringenin in lowering blood lipid level
total plasma cholesterol level lower than in the Control group (Sprague-Dawley rats; [3]): 19%
triglyceride level lower than in the control group (Sprague-Dawley rats; [3]): 33%
layer on the arterial endothelium (FIGS. 1B, 1C) ([1]; 1% cholesterol plus 1 mg/kg Lovastatin or 0.1% NG5006): no or very thin layers of macrophage-lipid complex
formation of fatty streak compared to the control group, in words ([1]; 1% cholesterol plus 1 mg/kg Lovastatin or 0.1% NG5006, 8 weeks): significantly inhibit the formation of fatty streak
Fatty Streak lesion (proportion of total arterial area) ([1]; 1% cholesterol plus 1 mg/kg Lovastatin or 0.1% NG5006, 8 weeks, Oil Red O staining): 12.3 ± 6.2%
weight change (ICR mice; 7 day test period): no weight loss
survival (ICR mice; observed 7 days): All the mice were alive at day 7
toxicity (ICR mice; observed 7 days): no toxicity
autopsy, pathological abnormality (ICR mice; sacrificed on the 7th day): did not develop any pathological abnormality
